Laboratory results: patent US8450317B2, “CXCR3 receptor antagonists” (Boehringer Ingelheim International GmbH, priority 2009, dated 2013)

Target: CXCR3 (Macaca fascicularis, UniProt A0A2K5UV19)
Assay: functional cellular assay measuring calcium flux in CXCR3 transfected cells (block of CXCR3/IP-10 interaction)
Assay type: cell-based, Cyno
Conditions: IP-10 induced intracellular calcium flux; Cyno-CHO cells stably expressing recombinant CXCR3 and G-alpha-16; IP-10 at EC80; read-out: IC50
Experimental: Compounds are assessed for the ability to block the interaction of CXCR3 and IP-10 in a functional cellular assay measuring calcium flux in CXCR3 transfected cells.
Cyno-CHO cells, stably expressing recombinant CXCR3 and G-alpha-16 are grown in F12 medium (Mediatech #45000-360) supplemented with 10% (V/V) FBS (Mediatech #35-01500), 1% Geneticin (Invitrogen #10131-027) and 0.2% Zeocin (Invitrogen #R250-05). The cells are spun down and re-suspended in growth media to a concentration of […]. 25 microL of cell suspension is added to each well of a BD-384-well TC treated plate, providing 12,000 cells/well. The plate is incubated at 37° C./5% CO2 overnight. On the day of the assay, the plates are removed, the media is flicked out and 25 microL of Ca-4 dye in assay buffer (HBSS, 10 mM HEPES ph 7.4), containing 2 mM probenacid is added to each well. The cell assay plates are then incubated at 37° C./5% CO2 for one hour.
Test compounds are dissolved in DMSO and diluted to 1.045 mM in DMSO. Just prior to assay, 2.75 microL of appropriately diluted test compound are added to each well of a 384 well plate containing 45 microL of HBSS buffer. After mixing, 5 microL of diluted compound are added to each well of the cell assay plate for a final assay concentration of 10 microM. The plate is incubated at room temperature for 15 min. 10 microL of IP-10 stock solution in HBSS (4× EC80 concentration) are added to each well of the cell assay plate except those cells reserved as blank wells containing buffer only. Intracellular calcium flux is recorded on the HAMAMTSU FDSS6000, using excitation at 480 nm and emission at 540 nm. Data are analyzed using Activity Base software.
In general, the preferred potency range (IC50) of compounds in the above assay is between 1 nM to 3 μM, and the most preferred potency range is 1 nM to 200 nM.

CXCR3, sequence (A0A2K5UV19 entry or part of it): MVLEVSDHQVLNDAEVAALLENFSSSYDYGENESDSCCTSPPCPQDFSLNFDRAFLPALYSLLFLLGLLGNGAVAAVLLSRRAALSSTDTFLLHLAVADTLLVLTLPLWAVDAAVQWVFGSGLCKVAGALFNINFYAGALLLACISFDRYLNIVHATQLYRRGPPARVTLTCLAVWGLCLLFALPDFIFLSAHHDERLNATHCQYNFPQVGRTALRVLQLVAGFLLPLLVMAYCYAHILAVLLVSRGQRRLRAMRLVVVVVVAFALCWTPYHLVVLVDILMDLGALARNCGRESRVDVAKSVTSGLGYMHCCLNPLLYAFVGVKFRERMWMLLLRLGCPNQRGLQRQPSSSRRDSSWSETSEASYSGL

| Compound | IC50 |
| --- | --- |
| O=C(Cn1cnc2cccnc21)N1CCN(c2ccc(F)cc2-c2cnc(N3CCOCC3)nc2)CC1 [1-(4-{4-fluoro-2-[2-(morpholin-4-yl)pyrimidin-5-yl]phenyl}piperazin-1-yl)-2-(3H-imidazo[4,5-b]pyridin-3-yl)ethanone] | 24 nM |
| O=C(Cn1ccc2cccnc21)N1CCN(c2ccc(F)cc2-c2cnc(N3CCCC3)nc2)CC1 [1-(4-{4-fluoro-2-[2-(pyrrolidin-1-yl)pyrimidin-5-yl]phenyl}piperazin-1-yl)-2-(1H-pyrrolo[2,3-b]pyridin-1-yl)ethanone] | 15 nM |
| O=C(Cn1ccc2ccncc21)N1CCN(c2ccc(F)cc2-c2cnc(N3CCCC3)nc2)CC1 [1-(4-{4-fluoro-2-[2-(pyrrolidin-1-yl)pyrimidin-5-yl]phenyl}piperazin-1-yl)-2-(1H-pyrrolo[2,3-c]pyridin-1-yl)ethanone] | 14 nM |
| O=C(Cn1cnc2cccnc21)N1CCN(c2ccc(F)cc2-c2cnc(N3CCCC3)nc2)CC1 [1-(4-{4-fluoro-2-[2-(pyrrolidin-1-yl)pyrimidin-5-yl]phenyl}piperazin-1-yl)-2-(3H-imidazo[4,5-b]pyridin-3-yl)ethanone] | 14 nM |
| CC1CN(c2ccc(C(F)(F)F)cc2-c2cnc(S(C)(=O)=O)nc2)CCN1C(=O)Cn1c(=O)[nH]c2ccccc21 (stereo not shown) [1-[2-(2-methyl-4-{2-[2-(methylsulfonyl)pyrimidin-5-yl]-4-(trifluoromethyl)phenyl}piperazin-1-yl)-2-oxoethyl]-1,3-dihydro-2H-benzimidazol-2-one] | 20 nM |
| CC1CN(c2ccc(C(F)(F)F)cc2-c2cnc(S(C)(=O)=O)nc2)CCN1C(=O)CN1CCCCC1=O (stereo not shown) [1-[2-(2-methyl-4-{2-[2-(methylsulfonyl)pyrimidin-5-yl]-4-(trifluoromethyl)phenyl}piperazin-1-yl)-2-oxoethyl]piperidin-2-one] | 310 nM |
| CC1CN(c2ccccc2-c2cnc(S(C)(=O)=O)nc2)CCN1C(=O)Cn1c(=O)[nH]c2ccccc21 (stereo not shown) [1-[2-(2-methyl-4-{2-[2-(methylsulfonyl)pyrimidin-5-yl]phenyl}piperazin-1-yl)-2-oxoethyl]-1,3-dihydro-2H-benzimidazol-2-one] | 63 nM |
| O=C(Cn1c(=O)[nH]c2ccccc21)N1CCN(c2ccccc2-c2ccccc2)CC1 [1-[2-(4-Biphenyl-2-yl-piperazin-1-yl)-2-oxo-ethyl]-1,3-dihydro-benzoimidazol-2-one] | 140 nM |
| CC1CN(c2ccc(C(F)(F)F)cc2-c2cnc(N3CCC(O)CC3)nc2)CCN1C(=O)Cn1c(=O)[nH]c2ccccc21 (stereo not shown) [1-[2-(4-{2-[2-(4-hydroxypiperidin-1-yl)pyrimidin-5-yl]-4-(trifluoromethyl)phenyl}-2-methylpiperazin-1-yl)-2-oxoethyl]-1,3-dihydro-2H-benzimidazol-2-one] | 9 nM |
| CC1CN(c2ccc(C(F)(F)F)cc2-c2cnc(N3CCC(O)CC3)nc2)CCN1C(=O)CN1CCCCC1=O (stereo not shown) [1-[2-(4-{2-[2-(4-hydroxypiperidin-1-yl)pyrimidin-5-yl]-4-(trifluoromethyl)phenyl}-2-methylpiperazin-1-yl)-2-oxoethyl]piperidin-2-one] | 11 nM |
| CC1CN(c2ccccc2-c2cnc(N3CCC(O)CC3)nc2)CCN1C(=O)Cn1c(=O)[nH]c2ccccc21 (stereo not shown) [1-[2-(4-{2-[2-(4-hydroxypiperidin-1-yl)pyrimidin-5-yl]phenyl}-2-methylpiperazin-1-yl)-2-oxoethyl]-1,3-dihydro-2H-benzimidazol-2-one] | 8 nM |
| CC1CN(c2ccccc2-c2cnc(N3CCC(O)CC3)nc2)CCN1C(=O)CN1CCCCC1=O (stereo not shown) [1-[2-(4-{2-[2-(4-hydroxypiperidin-1-yl)pyrimidin-5-yl]phenyl}-2-methylpiperazin-1-yl)-2-oxoethyl]piperidin-2-one] | 19 nM |
| O=C(Cn1c(=O)[nH]c2ccccc21)N1CCN(c2ccc(F)cc2-c2cnc(N3CCC(O)CC3)nc2)CC1 [1-[2-(4-{4-fluoro-2-[2-(4-hydroxypiperidin-1-yl)pyrimidin-5-yl]phenyl}piperazin-1-yl)-2-oxoethyl]-1,3-dihydro-2H-benzimidazol-2-one] | 8 nM |
| O=C(CN1CCCCC1=O)N1CCN(c2ccc(F)cc2-c2cnc(N3CCC(O)CC3)nc2)CC1 [1-[2-(4-{4-fluoro-2-[2-(4-hydroxypiperidin-1-yl)pyrimidin-5-yl]phenyl}piperazin-1-yl)-2-oxoethyl]piperidin-2-one] | 16 nM |
| CN1CCN(c2ncc(-c3cc(F)ccc3N3CCN(C(=O)Cn4c(=O)[nH]c5ccccc54)CC3)cn2)CC1 [1-[2-(4-{4-fluoro-2-[2-(4-methylpiperazin-1-yl)pyrimidin-5-yl]phenyl}piperazin-1-yl)-2-oxoethyl]-1,3-dihydro-2H-benzimidazol-2-one] | 14 nM |
| CN1CCN(c2ncc(-c3cc(F)ccc3N3CCN(C(=O)CN4CCCCC4=O)CC3)cn2)CC1 [1-[2-(4-{4-fluoro-2-[2-(4-methylpiperazin-1-yl)pyrimidin-5-yl]phenyl}piperazin-1-yl)-2-oxoethyl]piperidin-2-one] | 94 nM |
| CC1CN(c2ccc(F)cc2-c2cnc(S(C)(=O)=O)nc2)CCN1C(=O)Cn1c(=O)[nH]c2ccccc21 (stereo not shown) [1-[2-(4-{4-fluoro-2-[2-(methylsulfonyl)pyrimidin-5-yl]phenyl}-2-methylpiperazin-1-yl)-2-oxoethyl]-1,3-dihydro-2H-benzimidazol-2-one] | 60 nM |
| CS(=O)(=O)c1ncc(-c2cc(F)ccc2N2CCN(C(=O)Cn3c(=O)[nH]c4ccccc43)CC2)cn1 [1-[2-(4-{4-fluoro-2-[2-(methylsulfonyl)pyrimidin-5-yl]phenyl}piperazin-1-yl)-2-oxoethyl]-1,3-dihydro-2H-benzimidazol-2-one] | 47 nM |
| O=C(Cn1c(=O)[nH]c2ccccc21)N1CCN(c2ccc(F)cc2-c2cnc(N3CCOCC3)nc2)CC1 [1-[2-(4-{4-fluoro-2-[2-(morpholin-4-yl)pyrimidin-5-yl]phenyl}piperazin-1-yl)-2-oxoethyl]-1,3-dihydro-2H-benzimidazol-2-one] | 11 nM |
| O=C(CN1CCCCC1=O)N1CCN(c2ccc(F)cc2-c2cnc(N3CCOCC3)nc2)CC1 [1-[2-(4-{4-fluoro-2-[2-(morpholin-4-yl)pyrimidin-5-yl]phenyl}piperazin-1-yl)-2-oxoethyl]piperidin-2-one] | 30 nM |
| O=C(Cn1c(=O)[nH]c2ccccc21)N1CCN(c2ccc(F)cc2-c2cnc(N3CCCC3)nc2)CC1 [1-[2-(4-{4-fluoro-2-[2-(pyrrolidin-1-yl)pyrimidin-5-yl]phenyl}piperazin-1-yl)-2-oxoethyl]-1,3-dihydro-2H-benzimidazol-2-one] | 14 nM |
| O=C(CN1CCCCC1=O)N1CCN(c2ccc(F)cc2-c2cnc(N3CCCC3)nc2)CC1 [1-[2-(4-{4-fluoro-2-[2-(pyrrolidin-1-yl)pyrimidin-5-yl]phenyl}piperazin-1-yl)-2-oxoethyl]piperidin-2-one] | 23 nM |
| CC1CN(c2ccccc2-c2cnc(N3CCC(S(C)(=O)=O)CC3)nc2)CCN1C(=O)Cn1ccc2cccnc21 (stereo not shown) [1-[2-methyl-4-(2-{2-[4-(methylsulfonyl)piperidin-1-yl]pyrimidin-5-yl}phenyl)piperazin-1-yl]-2-(1H-pyrrolo[2,3-b]pyridin-1-yl)ethanone] | 9 nM |
| CC1CN(c2ccccc2-c2cnc(N3CCC(S(C)(=O)=O)CC3)nc2)CCN1C(=O)Cn1ccc2ccncc21 (stereo not shown) [1-[2-methyl-4-(2-{2-[4-(methylsulfonyl)piperidin-1-yl]pyrimidin-5-yl}phenyl)piperazin-1-yl]-2-(1H-pyrrolo[2,3-c]pyridin-1-yl)ethanone] | 8 nM |
| Cc1cc(C)n(CC(=O)N2CCN(c3ccccc3-c3cccc(Cl)c3)CC2)n1 [1-[4-(3′-Chloro-biphenyl-2-yl)-piperazin-1-yl]-2-(3,5-dimethyl-pyrazol-1-yl)-ethanone] | 111 nM |
| CC1CN(c2ccc(F)cc2-c2cnc(N3CCC(S(C)(=O)=O)CC3)nc2)CCN1C(=O)Cn1ccc2cccnc21 (stereo not shown) [1-[4-(4-fluoro-2-{2-[4-(methylsulfonyl)piperidin-1-yl]pyrimidin-5-yl}phenyl)-2-methylpiperazin-1-yl]-2-(1H-pyrrolo[2,3-b]pyridin-1-yl)ethanone] | 8 nM |
| CC1CN(c2ccc(F)cc2-c2cnc(N3CCC(S(C)(=O)=O)CC3)nc2)CCN1C(=O)Cn1ccc2ccncc21 (stereo not shown) [1-[4-(4-fluoro-2-{2-[4-(methylsulfonyl)piperidin-1-yl]pyrimidin-5-yl}phenyl)-2-methylpiperazin-1-yl]-2-(1H-pyrrolo[2,3-c]pyridin-1-yl)ethanone] | 8 nM |
| CC1CN(c2ccc(F)cc2-c2cnc(N3CCC(S(C)(=O)=O)CC3)nc2)CCN1C(=O)Cn1cnc2cccnc21 (stereo not shown) [1-[4-(4-fluoro-2-{2-[4-(methylsulfonyl)piperidin-1-yl]pyrimidin-5-yl}phenyl)-2-methylpiperazin-1-yl]-2-(3H-imidazo[4,5-b]pyridin-3-yl)ethanone] | 13 nM |
